Assay results taken from patent US4276430A, “Analgesic and anti-inflammatory compounds and compositions containing same” (The Procter & Gamble Company, priority 1979, dated 1981).

Legend:
[1] = guinea pig ultraviolet light induced erythema test; assay type: in vivo, guinea pig (Hartley strain albino); conditions: Cavia porcellus; topical; cumulative blanching grades over a 1-4 hour period after application; vehicle propylene glycol/ethanol; read-out: IC50 (concentration which inhibits UV-induced erythema by 50%)
Description: The compositions of this invention are evaluated for their anti-inflammation properties using a guinea pig ultraviolet light induced erythema test.
Hartley strain albino guinea pigs weighing between 400 and 500 grams are clipped on the dorsal area and then depilated using a cream hair remover. 15 minutes after the application of the hair remover, the area is thoroughly washed using warm tap water and then dried with a towel. […] Ten minutes irradiation constitutes a minimal erythema dose. An adhesive tape strip is attached to the center of the guinea pig's back to retain an unirradiated portion of skin. About 1 hour after irradiation time, 3 preparations are applied on each side using a micropipette. The treated areas are about 1×4 cm in size and are aligned vertically from near the center back down the side. The degree of blanching is determined at hourly intervals.
Compositions as below are formulated and tested.
*Dihydroxybenzoic acid derivative
Comparisons of the anti-inflammatory activity of the dihydroxybenzoic acid derivatives are made by calculating their IC50 values.

[2] = UV-induced erythema test in humans: anti-erythemic activity (blanching); assay type: in vivo, human; conditions: for blanching response: first 3-4 hours after a single application
[3] = UV-induced pain test in humans: analgesic activity (radiant heat pain stimulus); assay type: in vivo, human; conditions: for Recovery of Treated Skin: 1% (w/w) in propylene glycol/ethanol
From the text: The UV-induced erythema and/or pain model consists of creating a burn with ultraviolet light (UV) and treating the resultant erythemal reaction with topical applications of the new drug formulations. At various time intervals, the degree of erythema and the pain tolerance response to radiant heat are monitored.
Experiments have been designed to determine the effectiveness of benzyl 2,5-diacetoxybenzoate according to several parameters: treatment times, concentration of drug, repeated applications,duration of response, and vehicles.
A total of 56 subjects were actually used in the UV-induced erythema and pain tests.
The compositions of the test formulations employed in these studies were as follows: […]
(E) 0.01-0.5% (w/w) benzyl 2,5-diacetoxybenzoate in ethanol/propylene glycol/water (50/10/40, w/w/w);
(G)* 0.025 to 2.5% (w/w) benzyl 2,5-diacetoxybenzoate in a cream vehicle;
Induction of Erythema: Subjects were irradiated on a 2.5×20 cm area on their backs, using a bank of three 20S Westinghouse fluorescent lamps at a distance of 15 cm. Each subject received 2 to 4 MEDs of light (minimum erythemal dose) for these experiments.
Treatment with Formulations: The UV-irradiated area was divided into 4 treatment sites. When liquid formulations were tested, up to 40 microliter were topically applied to each treatment site using an Eppendorf micropipet. When cream formulations were tested, no more than 100 microliter were topically applied to each treatment site using a 1 cc tuberculin syringe with no needle; the cream was rubbed into the skin with a gloved finger.
Each site was treated no more than 4 times, and all treatments occurred within the 24-hour interval following UV-irradiation.
A randomixed treatment sequence was used.
2. Analgesic At suitable time
Elapsed time, in seconds,
Activity intervals within
to respond to a radiant
treated and untreated skin.
Skin irradiated with 3-4 MEDs (minimal erythemal doses) of UV-B light (normal sunburn range) becomes hyperalgesic to radiant heat in about four hours.
The experimental design was regarded as randomized blocks, in which the subject is the "block". The variation between subjects with respect to erythema or analgesic response was accounted for as a source of variation in the Analysis of Variance (ANOVA).

[4] = suppression of inflammation associated with arthritis (Mycobacterium butyricum, hind paw volume); assay type: in vivo, rat (Male Sprague-Dawley); conditions: topical 20 mg/kg/day, five weeks
Description: This example illustrates the efficacy of the dihydroxybenzoic acid derivatives described herein for suppressing the inflammation associated with arthritis.
Male Sprague-Dawley rats, weighing between 180-200 grams, are injected subcutaneously in the distal third of the tail with a suspension of 0.8 mg of heat-killed Mycobacterium butyricum in 0.1 ml of mineral oil. This injection introduces arthritis into the rat as evidenced by pedal edema (swelling). Measurement of the alleviation of the inflammation associated with the arthritis is made by determining the volume of the hind paws initially, two weeks later, and each subsequent week thereafter. The paw volume measurements are obtained by immersing each rat's hind paw up to a predetermined mark in a mercury bath connected to a Statham pressure transducer. The increase in pressure within the bath is proportional to the volume of the paw introduced.
A solution of benzyl 2,5-diacetoxybenzoate is made. The solution comprises a 1:1 mixture of propylene glycol and ethanol and 2% benzyl 2,5-diacetoxybenzoate. In one group, each rat is treated topically with 20 mg/kg/day of the benzyl 2,5-diacetoxybenzoate solution. The changes in paw volume after each treatment are compared to the control rats.

[5] = cited from earlier work
[6] = administered orally; aspirin-based products; cited from earlier work
[7] = vehicle propylene glycol/ethanol (50/50, w/w)

In the case of COC(=O)c1cc(OC(C)=O)ccc1OC(C)=O [CH3], the IC50 [1] is reported as 2300 µM.

CCCCOC(=O)c1cc(OC(C)=O)ccc1OC(C)=O [C4 H9, n-Butyl 2,5-diacetoxybenzoate] showed an IC50 [1] of 1200 µM.

CCCCCCCCCCCCOC(=O)c1cc(OC(C)=O)ccc1OC(C)=O [C12 H25, Dodecyl 2,5-diacetoxybenzoate] gave an IC50 [1] of 1200 µM.

CCOC(=O)c1cc(OC(C)=O)ccc1OC(C)=O [C2 H5] gave an IC50 [1] of 1800 µM.

For CCCCC(CC)COC(=O)c1cc(OC(C)=O)ccc1OC(C)=O (stereo not shown) [C2 H3 (C2 H5)C4 H9, 2'-ethylhexyl 2,5-diacetoxybenzoate], the IC50 [1] was 5800 µM.

With CCCCCCCCOC(=O)c1cc(OC(C)=O)ccc1OC(C)=O [C8 H17] the IC50 [1] was 340 µM.

CCCCCCOC(=O)c1cc(OC(C)=O)ccc1OC(C)=O [C6 H13, Hexyl 2,5-diacetoxybenzoate] gave an IC50 [1] of 340 µM.

CCCOC(=O)c1cc(OC(C)=O)ccc1OC(C)=O [C3 H7, Propyl 2,5-diacetoxybenzoate] gave an IC50 [1] of 1100 µM.

Work on CCCCCCCCCCOC(=O)c1cc(OC(C)=O)ccc1OC(C)=O [C10 H21, Decyl 2,5-diacetoxybenzoate] yielded an IC50 [1] of 650 µM.

With CC(=O)Oc1ccc(OC(C)=O)c(C(=O)OCc2ccccc2)c1 [Benzyl 2,5-diacetoxybenzoate] the blanching response ([2]; 0.01%) was “distinctly weaker”, the blanching response ([2]; 0.03-2.5%) was “very similar responses” and the “blanching response, multiple application compared with single application” value ([2]; 1 to 2.5%, 1 to 4 times within 24 hours) was “did not produce an effect greater than obtained with a single application”. The “half-life of the response (time for the maximum response to diminish 50%)” value ([2]; after drug treatment) was “about 9 hours”, the “time of maximum blanching response” value ([2]; after drug treatment) was 2 to 3 h and the “effect of treatment time on blanching response” value ([2]; application from a few minutes to 24 hours following UV-irradiation) was “the earlier a given treatment was made after UV-irradiation, the greater the blanching response”. The “vehicle effectiveness, peak blanching response: rank 1 (decreasing order)” value ([2]; at a given concentration) was “propylene glycol/ethanol (50/50, w/w)”, the “vehicle effectiveness, peak blanching response: rank 2 (decreasing order)” value ([2]; at a given concentration) was “ethanol/propylene glycol/water (50/10/40, w/w/w)=cream” and the “vehicle effectiveness, peak blanching response: rank 3 (decreasing order)” value ([2]; at a given concentration) was “ethanol/water (80/20, w/w)”. For the same compound, the anti-erythemic activity ([2]; conclusion) was “has anti-erythemic activity”, the “duration of some degree of blanching” value ([2]; higher concentrations, after treatment, dose-related) was 5 to 11 h and the “blanching response, repeated application” value ([2]; low concentrations, e.g., 0.03%, 1 to 4 times within 24 hours) was “high blanching response”. The “antierythemic activity by vehicle” value ([2]; propylene glycol/ethanol (50/50, w/w) vehicle) was “highest antierythemic activity”, the “Tests with Analgesic Responses” value ([3]; 0.01% in Propylene Glycol/Ethanol (50/50, w/w)) was 1/6 and the “dose dependence of the analgesic response” value ([3]; 0.01-1.0% in Propylene Glycol/Ethanol (50/50, w/w)) was “dose-dependent”. For the same compound, the “Tests with Analgesic Responses” value ([3]; 0.1% in Propylene Glycol/Ethanol (50/50, w/w)) was 2/6, the “analgesic activity, three applications compared with 2 or 1” value ([3]; 0.25%) was “more effective than 2 or 1 applications” and the “analgesic activity, repeated application compared with single application” value ([3]; 1%) was “failed to increase the level of analgesic activity effected by a single application”. For the same compound, the “time of maximum analgesic activity” value ([3]; 1% (w/w) in propylene glycol/ethanol (50/50, w/w), treatment 2 to 6 hours after UV-irradiation, following treatment) was 2 to 4 h, the “duration of some analgesic effects” value ([3]; 1% (w/w) in propylene glycol/ethanol (50/50, w/w), after treatment(s)) was “up to 10 hours” and the “Tests with Analgesic Responses” value ([3]; 1.0% in Propylene Glycol/Ethanol (50/50, w/w)) was 9/12. The “Recovery of Treated Skin” value ([3]; 2-4 hours after treatment, 22 subjects, SE 0.5, normal minus non-treated skin 4.0) was 2.4 s, the “Recovery of Treated Skin” value ([3]; 5-7 hours after treatment, 16 subjects, SE 0.4) was 1.6 s and the “Recovery of Treated Skin” value ([3]; 8-10 hours after treatment, 6 subjects, SE 0.7) was 1.4 s. The “delivery of an efficacious dose into the skin, compared with propylene glycol/ethanol” value ([3]; Ethanol/water (80/20), ethanol/propylene glycol/water (50/10/40), and a cream) was “somewhat less effective than propylene glycol/ethanol”, the topical analgesic activity ([3]; conclusion, rather severe and acute pain) was “does have topical analgesic activity for rather severe and acute pain” and the “return to normal pain tolerance” value ([3]; in 8 out of the 12 tests, at least one concentration at one time point) was at least 80%. The “analgesic action in non-irradiated skin” value ([3]; non-irradiated skin) was “No evidence of analgesic action was found”, the “analgesic response by vehicle” value ([3]; propylene glycol/ethanol (50/50, w/w) vehicle, compared with 4 vehicle systems) was “strongest analgesic activity” and the analgesic activity ([3]; skin treated 2 to 6 hours following UV-irradiation) was “Analgesic activity was demonstrated”. The “tests in which at least one concentration at one time point effected at least an 80% return to normal pain tolerance” value [3, 7] was 8 out of the 12, the “tests with statistically significant analgesia” value [3, 7] was 9 out of 12 and the IC50 [1] was 400 µM. For the same compound, the “reduction in pedal edema compared to non-treated control group” value ([4]; 2% solution in 1:1 propylene glycol and ethanol) was “significant improvement compared to the non-treated control group” and the “reduction in pedal edema compared with aspirin 200 mg/kg/day oral” value [4] was “comparable”.

Compound CC(=O)Oc1ccc(OC(C)=O)c(C(=O)OC(C)c2ccccc2)c1 (stereo not shown) [CH(C6 H5)CH3] has an IC50 [1] of 1200 µM.

In the case of CC(=O)Oc1ccccc1C(=O)O [aspirin], the “skin irritation on repeated topical application” value ([5]; repeated topical application of a high level) is given as “primary irritation and peeling of the superificial layers (the stratum corneum) of the skin”, the “concentration needed for topical analgesic effect” value ([5]; topical) is given as “a relatively high concentration of aspirin must be topically applied before its effect as a topical analgesic is noted” and the “effect on inflammation in humans when applied topically” value ([5]; topical) is given as “can delay and decrease inflammation in humans when applied topically”. The “gastric irritation and frank stomach bleeding, patients affected” value [6] was “up to 70%”.
